According to PubChem BioAssay (NCI):
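At the GI50, growth is halved. TGI marks complete inhibition of growth.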

Key:
Assay in all cases: inhibition of tumour cell growth, NCI panel, 384-well format
[1] = system: 786-0 renal
[2] = system: A498 renal
[3] = system: A549 NSCLC
[4] = system: ACHN renal
[5] = system: BT-549 breast
[6] = system: CAKI-1 renal
[7] = system: CCRF-CEM leukemia
[8] = system: COLO 205 colon
[9] = system: DU-145 prostate
[10] = system: HCC-2998 colon
[11] = system: HCT-116 colon
[12] = system: HCT-15 colon
[13] = system: HL-60(TB) leukemia
[14] = system: HOP-62 NSCLC
[15] = system: HOP-92 NSCLC
[16] = system: HT29 colon
[17] = system: IGROV1 ovarian
[18] = system: K-562 leukemia
[19] = system: KM12 colon
[20] = system: LOX IMVI melanoma
[21] = system: M14 melanoma
[22] = system: MALME-3M melanoma
[23] = system: MCF7 breast
[24] = system: MDA-MB-231 breast
[25] = system: MDA-MB-435 melanoma
[26] = system: MDA-MB-468 breast
[27] = system: MOLT-4 leukemia
[28] = system: NCI-H226 lung
[29] = system: NCI-H23 lung

For `O=P1(S)OC[C@H]2O[C@@H]3[C@H](F)[C@@H]2OP(O)(=S)OC[C@H]2O[C@H]([C@H](F)[C@@H]2O1)n1cnc2c(ncnc21)NC/C=C/CNc1ncnc2c1ncn23` (some centres not stated), the GI50 [1] was > 100 µM, the TGI [1] was > 100 µM and the GI50 [2] was > 100 µM. For the same compound, the TGI [2] was > 100 µM, the GI50 [3] was > 100 µM and the TGI [3] was > 100 µM. The GI50 [4] was > 100 µM, the TGI [4] was > 100 µM and the GI50 [5] was 9.28 µM. For the same compound, the TGI [5] was > 100 µM, the GI50 [6] was > 100 µM and the TGI [6] was > 100 µM. The GI50 [7] was 39.2 µM, the TGI [7] was > 100 µM and the GI50 [8] was 48.6 µM. The TGI [8] was > 100 µM, the GI50 [9] was > 100 µM and the TGI [9] was > 100 µM. For the same compound, the GI50 [10] was > 100 µM, the TGI [10] was > 100 µM and the GI50 [11] was > 100 µM. The TGI [11] was > 100 µM, the GI50 [12] was > 100 µM and the TGI [12] was > 100 µM. For the same compound, the GI50 [13] was 0.189 µM, the TGI [13] was 0.4 µM and the GI50 [14] was > 100 µM. The TGI [14] was > 100 µM, the GI50 [15] was > 100 µM and the TGI [15] was > 100 µM. The GI50 [16] was 19.2 µM, the TGI [16] was > 100 µM and the GI50 [17] was > 100 µM. For the same compound, the TGI [17] was > 100 µM, the GI50 [18] was > 100 µM and the TGI [18] was > 100 µM. For the same compound, the GI50 [19] was 51.2 µM, the TGI [19] was > 100 µM and the GI50 [20] was > 100 µM. The TGI [20] was > 100 µM, the GI50 [21] was > 100 µM and the TGI [21] was > 100 µM. For the same compound, the GI50 [22] was > 100 µM, the TGI [22] was > 100 µM and the GI50 [23] was > 100 µM. The TGI [23] was > 100 µM, the GI50 [24] was > 100 µM and the TGI [24] was > 100 µM. The GI50 [25] was 2.97 µM, the TGI [25] was 46 µM and the GI50 [26] was 2.24 µM. It also gave a TGI [26] of 7.62 µM, a GI50 [27] of 5.67 µM and a TGI [27] of 20.6 µM. The GI50 [28] was 0.0932 µM, the TGI [28] was 0.361 µM and the GI50 [29] was > 100 µM.
